Series [1] relates to B. anthracis (Sterne). Particulars: mice infected with a lethal dose of B. anthracis (Sterne); cited from earlier work.
Series [2] is described as follows: Mouse pharmacokinetic study, intraperitoneal.
[3] abbreviates: following a single dose, i.p., mice.

The values that follow come from article PMC3890692 (ACS medicinal chemistry letters, 2013).

On to `O=C([O-])[C@H](Cc1ccccc1)N1C(=O)/C(=C\c2ccc(-c3ccc(Cl)c(Cl)c3)o2)NC1=S.[Na+]` [Compound 12-ES-Na], for which the “prevention of mortality / block of infection” value in series [1] is recorded as “can effectively block Bacillus anthracis infection in mice”. Moreover, the Cl was 140 mL/h/kg in series [2] (Group 1, 25 mg/kg i.p., CD-1 female mice); 100 mL/h/kg in series [2] (Group 2, 50 mg/kg i.p., CD-1 female mice); 55 mL/h/kg in series [2] (Group 3, 100 mg/kg i.p., CD-1 female mice). Moreover, in series [2] (dosage below 100 mg/kg, i.p., CD-1 female mice), the “mortality and clinical observations” value was “no mortality and no significant clinical observations”. Also, the “AUC relative to the MIC” value in series [2] (setting [3]) is listed as “more than 200 fold”. Besides, the “time of concentration above MIC” value in series [2] (setting [3]) is on record as “more than 10 hours”. Also, the clearance in series [2] (rodent PK profile, i.p., mice) is ~ 100 mL/h/kg.
